Data reported in ChEMBL document CHEMBL1122363, “Synthesis and some pharmacological properties of oxytocin and vasopressin analogues with sarcosine or N-methyl-L-alanine in position 7” (1983).
Activity calls are given as the source filed them. The rule behind the calls is not given here. Positions of bridges follow the written chain, without caps; N, C: chain ends. Non-standard residues stand in square brackets, D forms with d. Residues, ends and D or L forms follow the SMILES beside them. NMeA = CN[C@@H](C)C(=O)O; Mpa = O=C(O)CCS; Sar = CNCC(=O)O

Legend:
[1] = organism: Rattus norvegicus; assay: Tested for antidiuretic activity in rat; assay type: functional, Urine; set-up: unit not given here
[2] = organism: Rattus norvegicus; assay: The compound was tested for milk ejection activity in rat; assay type: functional; set-up: unit not given here
[3] = organism: Rattus norvegicus; assay: Uterotonic activity in vitro in isolated rat uterus in absence of magnesium; assay type: functional; set-up: unit not given here
[4] = organism: Rattus norvegicus; assay: Uterotonic activity in vitro in isolated rat uterus in presence of magnesium; assay type: functional
[5] = Tested for the ratio of uterotonic potency to antidiuretic potency(O/A); assay type: functional, Urine
[6] = organism: Rattus norvegicus; assay: Tested for vasopressor activity in rat; assay type: functional; set-up: unit not given here
[7] = organism: Rattus norvegicus; assay: Tested for vasopressor activity in rat; N-None; assay type: functional, organism-based
[8] = organism: Rattus norvegicus; assay: Tested for vasopressor activity in rat;N-None; assay type: functional, organism-based
[9] = Tested for the ratio of uterotonic potency to pressor potency(O/P); assay type: functional
[10] = Tested for the ratio of antidiuretic potency to uterotonic potency(A/O); assay type: functional, Urine
[11] = Tested for the ratio of antidiuretic potency to uterotonic potency(A/P); assay type: functional

## CC[C@H](C)[C@@H]1NC(=O)[C@H](Cc2ccc(O)cc2)NC(=O)[C@@H](N)CSSC[C@@H](C(=O)N(C)[C@@H](C)C(=O)N[C@@H](CC(C)C)C(=O)NCC(N)=O)NC(=O)[C@H](CC(N)=O)NC(=O)[C@H](CCC(N)=O)NC1=O
[1]
  Activity: 0.12
[2]
  Activity: 402
[3]
  Activity: 62
[4]
  Activity: 184 IU/mg
[5]
  Ratio: 620

## CC[C@H](C)[C@@H]1NC(=O)[C@H](Cc2ccc(O)cc2)NC(=O)[C@@H](N)CSSC[C@@H](C(=O)N[C@@H](C)C(=O)N[C@@H](CC(C)C)C(=O)NCC(N)=O)NC(=O)[C@H](CC(N)=O)NC(=O)[C@H](CCC(N)=O)NC1=O
[6]
  Activity: 0.4
[1]
  Activity: 0.08
[3]
  Activity: 22
[5]
  Ratio: 275

## CC[C@H](C)[C@@H]1NC(=O)[C@H](Cc2ccc(O)cc2)NC(=O)[C@@H](N)CSSC[C@@H](C(=O)NCC(=O)N[C@@H](CC(C)C)C(=O)NCC(N)=O)NC(=O)[C@H](CC(N)=O)NC(=O)[C@H](CCC(N)=O)NC1=O
[6]
  Activity: 0.01
[1]
  Activity: 0.0056
[2]
  Activity: 392
[3]
  Activity: 93
[5]
  Ratio: 16600

## CC[C@H](C)[C@@H]1NC(=O)[C@H](Cc2ccc(O)cc2)NC(=O)CCSSC[C@@H](C(=O)N(C)CC(=O)N[C@@H](CC(C)C)C(=O)NCC(N)=O)NC(=O)[C@H](CC(N)=O)NC(=O)[C@H](CCC(N)=O)NC1=O
[2]
  Activity: 498
[3]
  Activity: 745
[4]
  Activity: 1350 IU/mg

## CC[C@H](C)[C@@H]1NC(=O)[C@@H](Cc2ccc(O)cc2)NC(=O)CCSSC[C@@H](C(=O)N(C)CC(=O)N[C@@H](CC(C)C)C(=O)NCC(N)=O)NC(=O)[C@H](CC(N)=O)NC(=O)[C@@H](CCC(N)=O)NC1=O
[7]
  Activity: inactive

## CC[C@H](C)[C@@H]1NC(=O)[C@@H](Cc2ccc(O)cc2)NC(=O)[C@H](N)CSSC[C@@H](C(=O)N(C)[C@@H](C)C(=O)N[C@@H](CC(C)C)C(=O)NCC(N)=O)NC(=O)[C@H](CC(N)=O)NC(=O)[C@@H](CCC(N)=O)NC1=O
[8]
  Activity: inactive

## CC[C@H](C)[C@@H]1NC(=O)[C@@H](Cc2ccc(O)cc2)NC(=O)[C@H](N)CSSC[C@@H](C(=O)NCC(=O)N[C@@H](CC(C)C)C(=O)NCC(N)=O)NC(=O)[C@H](CC(N)=O)NC(=O)[C@@H](CCC(N)=O)NC1=O
[9]
  Ratio: 9300

## CC[C@H](C)[C@@H]1NC(=O)[C@@H](Cc2ccc(O)cc2)NC(=O)[C@H](N)CSSC[C@@H](C(=O)N[C@@H](C)C(=O)N[C@@H](CC(C)C)C(=O)NCC(N)=O)NC(=O)[C@H](CC(N)=O)NC(=O)[C@@H](CCC(N)=O)NC1=O
[9]
  Ratio: 55

## CC[C@H](C)[C@@H]1NC(=O)[C@H](Cc2ccc(O)cc2)NC(=O)CCSSC[C@H](C(=O)N2CCC[C@H]2C(=O)N[C@@H](CC(C)C)C(=O)NCC(N)=O)NC(=O)[C@H](CC(N)=O)NC(=O)[C@H](CCC(N)=O)NC1=O
[9]
  Ratio: 120

## NC(=O)CC[C@@H]1NC(=O)[C@H](Cc2ccccc2)NC(=O)[C@H](Cc2ccc(O)cc2)NC(=O)[C@@H](N)CSSC[C@@H](C(=O)NCC(=O)N[C@@H](CCCN=C(N)N)C(=O)NCC(N)=O)NC(=O)[C@H](CC(N)=O)NC1=O (H-CYFQNCGRG-NH2; disulfide 1-6)
[2]
  Activity: 0.1
[4]
  Activity: 0.01 IU/mg

## C[C@@H](C(=O)N[C@@H](CCCN=C(N)N)C(=O)NCC(N)=O)N(C)C(=O)[C@@H]1CSSC[C@H](N)C(=O)N[C@@H](Cc2ccc(O)cc2)C(=O)N[C@@H](Cc2ccccc2)C(=O)N[C@@H](CCC(N)=O)C(=O)N[C@@H](CC(N)=O)C(=O)N1 (H-CYFQNC[NMeA]RG-NH2; disulfide 1-6)
[6]
  Activity: 4.1
[1]
  Activity: 35
[2]
  Activity: 2.8
[3]
  Activity: 343
[4]
  Activity: 10.6 IU/mg
[10]
  Ratio: 122
[11]
  Ratio: 32

## CN(CC(=O)N[C@@H](CCCN=C(N)N)C(=O)NCC(N)=O)C(=O)[C@@H]1CSSC[C@H](N)C(=O)N[C@@H](Cc2ccc(O)cc2)C(=O)N[C@@H](Cc2ccccc2)C(=O)N[C@@H](CCC(N)=O)C(=O)N[C@@H](CC(N)=O)C(=O)N1 (H-CYFQNC[Sar]RG-NH2; disulfide 1-6)
[6]
  Activity: 36
[1]
  Activity: 110
[2]
  Activity: 9.3
[3]
  Activity: 188
[4]
  Activity: 3.6 IU/mg
[10]
  Ratio: 20
[11]
  Ratio: 52

## CC[C@H](C)[C@@H]1NC(=O)[C@H](Cc2ccc(O)cc2)NC(=O)[C@@H](N)CSSC[C@@H](C(=O)N(C)CC(=O)N[C@@H](CC(C)C)C(=O)NCC(N)=O)NC(=O)[C@H](CC(N)=O)NC(=O)[C@H](CCC(N)=O)NC1=O (H-CYIQNC[Sar]LG-NH2; disulfide 1-6)
[1]
  Activity: 0.18
[2]
  Activity: 564
[3]
  Activity: 459
[4]
  Activity: 609 IU/mg
[5]
  Ratio: 2550

## C[C@@H](C(=O)N[C@@H](CCCN=C(N)N)C(=O)NCC(N)=O)N(C)C(=O)[C@@H]1CSSCCC(=O)N[C@@H](Cc2ccc(O)cc2)C(=O)N[C@@H](Cc2ccccc2)C(=O)N[C@@H](CCC(N)=O)C(=O)N[C@@H](CC(N)=O)C(=O)N1 ([Mpa]YFQNC[NMeA]RG-NH2; disulfide 1-6)
[6]
  Activity: 8
[1]
  Activity: 35
[2]
  Activity: 1.7
[3]
  Activity: 113
[4]
  Activity: 1.3 IU/mg
[10]
  Ratio: 78
[11]
  Ratio: 102

## CN(CC(=O)N[C@@H](CCCN=C(N)N)C(=O)NCC(N)=O)C(=O)[C@@H]1CSSCCC(=O)N[C@@H](Cc2ccc(O)cc2)C(=O)N[C@@H](Cc2ccccc2)C(=O)N[C@@H](CCC(N)=O)C(=O)N[C@@H](CC(N)=O)C(=O)N1 ([Mpa]YFQNC[Sar]RG-NH2; disulfide 1-6)
[6]
  Activity: 49
[1]
  Activity: 193
[2]
  Activity: 38.2
[3]
  Activity: 580
[4]
  Activity: 0.84 IU/mg
[10]
  Ratio: 15
[11]
  Ratio: 690

## CC[C@H](C)[C@@H]1NC(=O)[C@H](Cc2ccc(O)cc2)NC(=O)CCSSC[C@@H](C(=O)N(C)[C@@H](C)C(=O)N[C@@H](CC(C)C)C(=O)NCC(N)=O)NC(=O)[C@H](CC(N)=O)NC(=O)[C@H](CCC(N)=O)NC1=O ([Mpa]YIQNC[NMeA]LG-NH2; disulfide 1-6)
[2]
  Activity: 157
[3]
  Activity: 98
[4]
  Activity: 274 IU/mg

## CC[C@H](C)[C@@H]1NC(=O)[C@H](Cc2ccc(O)cc2)NC(=O)CCSSC[C@@H](C(=O)N2CCC[C@H]2C(=O)N[C@@H](CC(C)C)C(=O)NCC(N)=O)NC(=O)[C@H](CC(N)=O)NC(=O)[C@H](CCC(N)=O)NC1=O [DEMOXYTOCIN]
[5]
  Ratio: 130

## N=C(N)NCCC[C@H](NC(=O)[C@@H]1CCCN1C(=O)[C@@H]1CSSCCC(=O)N[C@@H](Cc2ccc(O)cc2)C(=O)N[C@@H](Cc2ccccc2)C(=O)N[C@@H](CCC(N)=O)C(=O)N[C@@H](CC(N)=O)C(=O)N1)C(=O)NCC(N)=O [DESMOPRESSIN]
[4]
  Activity: 346 IU/mg
[10]
  Ratio: 60
[11]
  Ratio: 5

## CC[C@H](C)[C@@H]1NC(=O)[C@H](Cc2ccc(O)cc2)NC(=O)[C@@H](N)CSSC[C@@H](C(=O)N2CCC[C@H]2C(=O)N[C@@H](CC(C)C)C(=O)NCC(N)=O)NC(=O)[C@H](CC(N)=O)NC(=O)[C@H](CCC(N)=O)NC1=O [OXYTOCIN]
[4]
  Activity: 486 IU/mg
[9]
  Ratio: 120
